Reference: patent US20260124293A1 (priority 2022, published 2026)

System: WT SARS-CoV-2 or OTS4-5-7-8 in VeroE6/TMPRSS2 cells
Type: cell-based

Structure (SMILES): CC(C)C(=O)OC[C@H]1O[C@@H](n2ccc(NO)nc2=O)[C@H](O)[C@@H]1O [molnupiravir]
- number of infectious virus particles in a TCID50 virus assay on adding a mutagen: reduced the number of infectious virus particles
